According to article PMC6943918 (The Biochemical journal, 2014):

Biological target: T1, ZmTenA_E (maize TenA_E, GRMZM2G080501) (Zea mays, UniProt B6TPF2)
T1 sequence (B6TPF2 1-224): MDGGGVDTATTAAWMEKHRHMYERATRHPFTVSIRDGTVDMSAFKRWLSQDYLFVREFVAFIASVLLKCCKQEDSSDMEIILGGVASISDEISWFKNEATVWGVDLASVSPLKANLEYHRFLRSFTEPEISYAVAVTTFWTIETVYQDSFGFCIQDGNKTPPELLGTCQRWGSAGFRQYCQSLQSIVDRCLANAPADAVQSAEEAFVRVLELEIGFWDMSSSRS
Assay: HPLC-UV
Type: biochemical
Details: amino-HMP aminohydrolase; 100 nmol substrate, 50 μg enzyme, 4 h, 30°C

Cc1ncc(CN)c(N)n1 [Amino-HMP, 4-amino-5-aminomethyl-2-methylpyrimidine]
HPLC-UV (235 nm) hydrolysis assay: both plant TenA_E proteins had some activity against amino-HMP
